Measurements from patent EP4653444A1, “FUSED TRICYCLIC COMPOUND AS KINASE INHIBITOR” (Hangzhou Innogate Pharma Co., Ltd., priority 2023, dated 2024).

Key:
in vivo = settings: rat, po, 3 mg/kg
FAK kinase = FAK kinase (Homo sapiens, UniProt Q05397); assay: FAK kinase activity inhibition assay, method A (HTRF) and method B (Lantha screen); type: biochemical
Protocol: The HTRF method was used to evaluate the inhibitory activity of the compounds against FAK kinase. […]. The reaction conditions were: FAK kinase at 0.1 ng/µL; ATP 10 µM; substrate concentration 1 µM. Compounds were serially diluted in DMSO and shaken on a shaker for 20 minutes. Prepare 2× kinase using 1× reaction buffer. Transfer 25 nL compound to a 384-well plate using Echo 655. Add 2.5 µL kinase per well. Seal the plate with sealing film, centrifuge at 1000 rpm for 60 seconds, and incubate at 25°C for 12 hours. Prepare 2× ATP/substrate mix using 1× enzyme reaction buffer and add 2.5 µL 2× ATP/substrate mix per well. Seal the plate with sealing film, centrifuge at 1000 rpm for 60 seconds, and incubate at 25°C for 50 minutes. Prepare 2×XL665 & antibody solution using HTRF detection buffer, and add 5 µL per well. Incubate at 25°C for 60 minutes. Read fluorescence at 620 nm (Cryptate) and 665 nm (XL665). Calculate the ratio per well (Ratio_665/620 nm). % Inhibition = 100% - [(Compound Ratio - Positive Control Ratio)/ (Negative Control Ratio - Positive Control Ratio)] × 100%. IC50 values (half-maximal inhibitory concentration) were calculated by nonlinear regression using GraphPad Prism 7.0. Y = Bottom + (Top - Bottom)/ (1 + 10^ ((LogIC50 - X) × Hill Slope)), where X is the log of compound concentration and Y is the % inhibition.
The Lantha screen assay was used to evaluate the FAK kinase inhibitory activity. Compounds were dissolved in 100% DMSO at 10 mM stock concentration. Prepare 1× kinase buffer (25 mM HEPES, pH 7.5, 0.01 mM Triton, 0.5 mM EGTA, 0.01% Brij-35). Dilute compounds in a gradient, and transfer 5 µL compound into the reaction plate. Prepare 2× kinase solution with 1× Kinase buffer. Add 5 µL kinase solution to compound and positive control wells, and 5 µL 1× Kinase buffer to negative control wells. Mix reaction plate by shaking. Prepare 4× ATP/Fluorescein-polyGT substrate mix with 1× Kinase buffer. Add 2.5 µL substrate solution to initiate the reaction. Shake and incubate at room temperature for 30 minutes. Prepare 2× detection reagent (2 nM antibody, 10 mM EDTA) and add 10 µL per well to stop the reaction. Briefly centrifuge, mix, and incubate for 60 minutes. Read fluorescence at 340 nm excitation and 520 nm/495 nm emission using EnVision. Collect data and calculate 520 nm/495 nm ratio. Calculate the inhibition percentage using the formula: % Inhibition = (Max - Sample Ratio)/(Max - Min) × 100, where min is the mean of negative control wells (no enzyme activity), and max is the mean of positive control wells (DMSO-inhibited conversion rate).Use XLFit Excel add-in version 5.4.0.8 to determine the IC50 values of each compound against the enzyme activity: Y = Bottom + (Top - Bottom)/(1 + (IC50/X)^HillSlope).

FLT3 = target: T1, FLT3 (Homo sapiens, UniProt P36888); assay: FLT3 kinase activity inhibition assay (Mobility shift assay); type: biochemical
T1 sequence (P36888 27-993): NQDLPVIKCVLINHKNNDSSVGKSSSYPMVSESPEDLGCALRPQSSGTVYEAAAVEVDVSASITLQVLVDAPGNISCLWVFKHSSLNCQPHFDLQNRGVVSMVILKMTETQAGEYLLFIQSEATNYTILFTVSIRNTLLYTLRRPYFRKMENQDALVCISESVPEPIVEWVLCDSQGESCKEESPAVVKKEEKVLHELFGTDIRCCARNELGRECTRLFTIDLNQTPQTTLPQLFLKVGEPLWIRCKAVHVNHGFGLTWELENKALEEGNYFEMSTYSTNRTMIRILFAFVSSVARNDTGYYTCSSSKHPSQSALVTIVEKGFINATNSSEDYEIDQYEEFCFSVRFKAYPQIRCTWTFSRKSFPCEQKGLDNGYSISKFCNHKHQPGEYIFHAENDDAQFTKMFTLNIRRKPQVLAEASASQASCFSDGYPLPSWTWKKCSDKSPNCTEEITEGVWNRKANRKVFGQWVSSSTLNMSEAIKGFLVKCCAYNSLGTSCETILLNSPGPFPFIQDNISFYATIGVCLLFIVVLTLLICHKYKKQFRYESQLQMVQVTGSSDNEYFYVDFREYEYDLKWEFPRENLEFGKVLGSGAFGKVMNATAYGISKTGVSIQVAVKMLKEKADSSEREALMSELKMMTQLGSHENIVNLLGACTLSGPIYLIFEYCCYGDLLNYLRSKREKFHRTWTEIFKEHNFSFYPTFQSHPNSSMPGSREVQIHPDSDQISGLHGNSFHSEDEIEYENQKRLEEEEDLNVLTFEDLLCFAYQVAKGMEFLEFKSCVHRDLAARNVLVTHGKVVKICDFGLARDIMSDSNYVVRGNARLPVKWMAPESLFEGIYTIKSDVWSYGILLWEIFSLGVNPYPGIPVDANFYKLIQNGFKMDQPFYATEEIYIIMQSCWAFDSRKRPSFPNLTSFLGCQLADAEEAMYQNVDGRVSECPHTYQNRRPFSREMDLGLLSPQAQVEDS
Protocol: Testing compound inhibitory activity against FLT3 and AXL kinases using Mobility shift assay. Compounds were dissolved in 100% DMSO to prepare 10 mM stock solutions. Prepare 1× Kinase Buffer. Test compounds were serially diluted in 5-fold gradients, and 250 nL of 100× final concentration compounds were transferred to destination plate 3573 using an Echo 550 liquid handler. A 2.5× final concentration kinase solution was prepared in 1× Kinase Buffer. Then, 10 µL of the 2.5× kinase solution was added to both compound wells and positive control wells, while 10 µL of 1× Kinase Buffer was added to negative control wells. The plate was centrifuged at 1000 rpm for 30 seconds, mixed by orbital shaking, and incubated at room temperature for 10 minutes. A 5/3× final concentration mixture of ATP and Kinase Substrate 25 was prepared in 1× Kinase Buffer. The reaction was initiated by adding 15 µL of the 5/3× ATP/substrate mixture. The 384-well plate was centrifuged at 1000 rpm for 30 seconds, mixed by shaking, and incubated at room temperature for 120 minutes. The kinase reaction was terminated by adding 30 µL stop solution, followed by centrifugation at 1000 rpm for 30 seconds and mixing. Conversion rates were measured using a Caliper EZ Reader. %Inhibition = (Conversion%_max - Conversion%_sample)/(Conversion%_max - Conversion%_min) × 100. Where: Conversion%_sample: Conversion rate reading of test samples; Conversion%_min: Mean value of negative control wells (representing conversion rate without enzyme activity); Conversion%_max: Mean value of positive control wells (representing conversion rate without compound inhibition). Dose-response curves were plotted with log(concentration) as the X-axis and percentage inhibition as the Y-axis. Curve fitting was performed using GraphPad Prism 5 software with the "log(inhibitor) vs. response - Variable slope" model to derive IC50 values for each compound's enzyme inhibitory activity. The fitting formula was: Y = Bottom + (Top - Bottom)/(1 + 10^((LogIC50 - X) × HillSlope)).

HPK1 kinase = HPK1 kinase (Homo sapiens, UniProt Q92918); assay: HPK1 kinase activity inhibition assay (Mobility shift assay); type: biochemical
Sequence of HPK1 kinase (Q92918 whole entry): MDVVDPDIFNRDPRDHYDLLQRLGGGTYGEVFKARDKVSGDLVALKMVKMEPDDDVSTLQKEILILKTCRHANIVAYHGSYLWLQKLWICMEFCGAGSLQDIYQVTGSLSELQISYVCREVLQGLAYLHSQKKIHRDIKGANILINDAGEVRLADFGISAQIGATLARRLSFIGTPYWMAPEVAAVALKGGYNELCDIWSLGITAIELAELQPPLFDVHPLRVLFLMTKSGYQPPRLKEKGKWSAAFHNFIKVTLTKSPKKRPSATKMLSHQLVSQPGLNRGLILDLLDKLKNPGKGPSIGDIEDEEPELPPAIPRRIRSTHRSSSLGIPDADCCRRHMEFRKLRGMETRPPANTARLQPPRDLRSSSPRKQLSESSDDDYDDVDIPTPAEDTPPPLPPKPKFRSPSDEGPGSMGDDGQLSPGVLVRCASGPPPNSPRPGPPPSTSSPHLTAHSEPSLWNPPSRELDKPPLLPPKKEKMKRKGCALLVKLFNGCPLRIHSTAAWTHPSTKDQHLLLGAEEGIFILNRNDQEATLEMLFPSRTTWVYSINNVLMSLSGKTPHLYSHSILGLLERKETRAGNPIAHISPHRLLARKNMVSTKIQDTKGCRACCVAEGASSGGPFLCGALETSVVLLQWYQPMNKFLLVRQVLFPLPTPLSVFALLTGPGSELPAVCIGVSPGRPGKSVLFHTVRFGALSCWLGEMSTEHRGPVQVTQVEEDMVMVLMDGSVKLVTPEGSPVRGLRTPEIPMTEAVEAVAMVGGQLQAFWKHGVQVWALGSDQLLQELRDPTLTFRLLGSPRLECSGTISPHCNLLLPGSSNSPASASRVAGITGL
Protocol: Measure compound inhibitory activity against HPK1 kinase using Mobility shift assay. Compounds were dissolved in 100% DMSO to prepare 10 mM stock solutions. 1× Kinase buffer was prepared. Test compounds were serially diluted in 5-fold gradients, and 250 nL of 100× final concentration compounds were transferred to destination plate 3573 using an Echo 550 liquid handler. A 2.5× final concentration kinase solution was prepared in 1× Kinase Buffer. 10 µL of the 2.5× kinase solution was added to both compound wells and positive control wells, while 10 µL of 1× Kinase buffer was added to negative control wells. The plate was centrifuged at 1000 rpm for 30 seconds, mixed by orbital shaking, and incubated at room temperature for 10 minutes. A 5/3× final concentration mixture of ATP and Kinase substrate 25 was prepared in 1× Kinase buffer. 15 µL of the 5/3× ATP/substrate mixture was added to initiate the reaction. The 384-well plate was centrifuged at 1000 rpm for 30 seconds, mixed by shaking, and incubated at room temperature for 120 minutes. The kinase reaction was terminated by adding 30 µL stop solution, followed by centrifugation at 1000 rpm for 30 seconds and mixing. Conversion rates were measured using a Caliper EZ Reader. The inhibition percentage was calculated as: %Inhibition = (Conversion%_max - Conversion%_sample)/(Conversion%_max - Conversion%_min) × 100. Where Conversion%_sample: Conversion rate reading of test samples; Conversion%_min: Mean value of negative control wells (representing conversion rate without enzyme activity); Conversion%_max: Mean value of positive control wells (representing conversion rate without compound inhibition). Dose-response curves were plotted with log(concentration) as the X-axis and percentage inhibition as the Y-axis. Curve fitting was performed using GraphPad Prism 5 software with the "log(inhibitor) vs. response - Variable slope" model to derive IC50 values for each compound's enzyme inhibitory activity. The fitting formula was: Y = Bottom + (Top - Bottom)/(1 + 10^((LogIC50 - X) × HillSlope)).

Sequence of FAK kinase (Q05397 whole entry): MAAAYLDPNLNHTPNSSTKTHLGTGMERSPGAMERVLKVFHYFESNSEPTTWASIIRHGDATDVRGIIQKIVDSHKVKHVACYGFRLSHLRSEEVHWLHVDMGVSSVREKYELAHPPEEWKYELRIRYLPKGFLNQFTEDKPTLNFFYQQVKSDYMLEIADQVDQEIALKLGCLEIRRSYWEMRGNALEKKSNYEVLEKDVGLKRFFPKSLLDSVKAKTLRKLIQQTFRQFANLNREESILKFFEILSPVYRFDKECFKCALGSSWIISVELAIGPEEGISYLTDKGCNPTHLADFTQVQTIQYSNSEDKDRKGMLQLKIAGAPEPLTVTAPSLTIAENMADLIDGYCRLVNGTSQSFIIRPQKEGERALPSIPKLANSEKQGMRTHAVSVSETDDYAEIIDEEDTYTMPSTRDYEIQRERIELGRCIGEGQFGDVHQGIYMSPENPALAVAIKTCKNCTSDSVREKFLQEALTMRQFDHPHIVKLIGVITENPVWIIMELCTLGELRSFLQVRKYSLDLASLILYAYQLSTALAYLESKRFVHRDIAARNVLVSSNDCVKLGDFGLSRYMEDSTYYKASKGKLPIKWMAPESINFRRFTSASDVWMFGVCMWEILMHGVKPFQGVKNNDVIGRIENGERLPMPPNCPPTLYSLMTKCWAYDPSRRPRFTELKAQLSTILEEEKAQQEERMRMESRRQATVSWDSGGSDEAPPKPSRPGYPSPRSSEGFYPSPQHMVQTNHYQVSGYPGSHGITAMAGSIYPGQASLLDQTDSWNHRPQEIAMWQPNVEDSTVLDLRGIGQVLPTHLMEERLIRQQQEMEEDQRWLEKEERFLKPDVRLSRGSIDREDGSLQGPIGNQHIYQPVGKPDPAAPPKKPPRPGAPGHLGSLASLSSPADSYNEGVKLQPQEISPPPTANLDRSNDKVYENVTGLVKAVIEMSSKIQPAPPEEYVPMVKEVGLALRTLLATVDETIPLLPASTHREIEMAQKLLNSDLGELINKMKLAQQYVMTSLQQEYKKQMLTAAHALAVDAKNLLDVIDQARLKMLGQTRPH

Row | AUC(0-t) at 24 h (in vivo) | Cmax (in vivo) | Tmax (in vivo) | half-life (in vivo) | SMILES | IC50 (FAK kinase) | IC50 (FLT3) | IC50 (HPK1 kinase)
1 | 1460 ng·h/mL | 487 ng/mL | 0.5 h | 1.76 h | CCc1cc2c(cc1Nc1ncc(C(F)(F)F)c(NCCCN3CCOCCC3=O)n1)OC[C@H]1CN(C3COC3)CCN21 [Compound A12R] | – | – | –
2 | – | – | – | – | CNC(=O)c1ccccc1Nc1cc(Nc2cc3c(cc2OC)N2CCN(C4CCOCC4)C[C@@H]2CO3)ncc1C(F)(F)F [Compound D1R] | < 3 nM | < 30 nM | < 30 nM
